# Measurements taken from US8580752B2, “Aromatic amides as potentiators of bioefficacy of anti-infective drugs” (priority 2005, dated 2013).
# Like-named read-outs stand apart in the source and are kept apart here.
# Tests used:
# [1] = tested on: M. tuberculosis 611; experiment: MIC by checkerboard method; assay type: cell-based, Mycobacterium tuberculosis
# Experimental: (§1) This checkerboard technique can be performed with liquid or semisolid (agar) media.
# (§2) In this method the agar (Mueller Hinton agar, Middlebrook 7H10 agar) was autoclaved and allowed to cool to 55° C. to 50° C. The combination of the standard drug and the potentiator was added to the agar. Serial two fold dilutions of each of standard drug and the potentiator were prepared in appropriate solvents. In order to maintain the desired concentrations of both agar and drugs, and to rule out the effect of solvent, the volume of solvent (containing standard drug or potentiator) added to agar was kept small (i.e ≦5% of the total volume). After the agar plates have been poured and allowed to dry, the bacteria to be tested were applied to the surface of agar with a replicating device designed to deliver a standard inoculum (approx 10^4 cfu|spot). The plates were incubated at 37° C. for 24 hrs (3 weeks in case of Mycobacterium tuberculosis)
# (§3) The above-mentioned checkerboard was also performed with liquid media in a microtiter plate format. This method was used to study the combination of antibacterial/antifungal/antiviral drugs with potentiator.
# [2] = tested on: M. tuberculosis 615; experiment: MIC by checkerboard method; assay type: cell-based, Mycobacterium tuberculosis
# Experimental: as §1, §2, §3
# [3] = tested on: M. tuberculosis H37Rv; experiment: MIC by checkerboard method; assay type: cell-based, Mycobacterium tuberculosis; conditions: for MIC: Mycobacterium tuberculosis, Rifampicin alone
# [4] = tested on: M. intracellure ATCC 13950; experiment: MIC by checkerboard method; assay type: cell-based
# [5] = tested on: M. avium ATCC 49601; experiment: MIC by checkerboard method; assay type: cell-based
# [6] = tested on: MRSA 33; experiment: MIC by checkerboard method; assay type: cell-based; conditions: Staphylococcus aureus, S aureus MRSA 33
# [7] = tested on: S epidermidis ATCC 12228; experiment: MIC by checkerboard method; assay type: cell-based
# [8] = tested on: MRSA; experiment: MIC by checkerboard method, comparison with piperine; assay type: cell-based, Staphylococcus aureus; conditions: Staphylococcus aureus, Tables 5A/5B
# [9] = tested on: S aureus ATCC 29213; experiment: MIC by checkerboard method; assay type: cell-based, Staphylococcus aureus; conditions: Staphylococcus aureus
# [10] = tested on: B cereus RRL 101; experiment: MIC by checkerboard method; assay type: cell-based
# [11] = tested on: MRSA 450; experiment: MIC by checkerboard method; assay type: cell-based; conditions: Staphylococcus aureus, S aureus MRSA 450
# [12] = tested on: M. tb; experiment: MIC of anti infective drugs alone and with potentiators; assay type: cell-based, Mycobacterium tuberculosis; conditions: Mycobacterium tuberculosis, drug alone
# [13] = tested on: Staphylococcus aureus ATCC 29213; experiment: Systemic infection model of mice; assay type: in vivo, Swiss albino mice; conditions: ATCC29213, iv, read-out: ED50 for ciprofloxacin
# Experimental: The study was conducted to see the in vivo response of ciprofloxacin in combination with the above-mentioned potentiator. The Swiss albino mice were infected intravenously with Staphylococcus aureus ATCC 29213 (10^7 CFU/mouse). The infected mice were divided in groups and each group consisted of 6 mice. The treatment consisted of one dose i.e. 5 or 10 or 20 mg/kg immediately after the infection followed by the next dose after a gap of 6 hrs. The result was recorded as number of survivals each day.
# [14] = tested on: Gm −ve bacteria; experiment: microbe, parasite or virus in culture; assay type: cell-based, Gram negative; conditions: read-out: MIC Drug alone
# [15] = tested on: MRSA; experiment: Wound infection treatment in mice; assay type: in vivo; conditions: for Growth / Mean CFU: MRSA wound infection in mice
# Experimental: The study was conducted to see the in vivo response of Mupirocin in combination with the above-mentioned potentiator. Wound area of 1.5 cm×1.5 cm was created on the skin of mice by abrasion with sand paper. An inoculum of 10^8 CFU/ml of MRSA was applied on to this wound area. The wound was treated for five days (two applications a day) with mupirocin cream and the other group with a formulation of mupirocin at ¼^th concentration and compound of formula 1a. […] (Table-6).
# [16] = tested on: MRSA 15187; experiment: MIC by checkerboard method; assay type: cell-based; conditions: Staphylococcus aureus; Mupirocin alone; S aureus MRSA 15187
# [17] = tested on: S. aureus 29213, MRSA and M. tuberculosis H37Rv; experiment: Comparison of potentiating activity with piperine; assay type: cell-based; conditions: Ciprofloxacin, Amikacin, Rifampicin and Mupirocin (Table-5 A & B)
# Experimental: Minimum Inhibitory Concentration (MIC) of antibacterial agents (Ciprofloxacin, Amikacin, Rifampicin and Mupirocin) was determined alone and in combination with compound of formula (1a). MIC of the abovementioned antibacterial agents was also determined in combination with piperine.
# [18] = tested on: mice and guinea pig models infected with microorganisms; experiment: In vivo infection models, combinations with anti-infective agents
# Text: These combinations were also efficacious when tested in in vivo using mice and guinea pig models infected with microorganisms (table-7).
# [19] = tested on: Staphylococcus aureus, MRSA and Staphylococcus hemolyticus; experiment: Decrease in MIC of ciprofloxacin in combination; assay type: cell-based; conditions: bacterial species (Table-2)
# [20] = Acute toxicity study; assay type: in vivo; conditions: mice
# Text: Parameters monitored were: Food/water consumption, body weight, organ weight, haematological and clinical chemistry profile.
# [21] = tested on: S. aureus ATCC 29213 (wild strain); experiment: Ethidium bromide accumulation and efflux; conditions: compound 25 μg/ml, ethidium bromide 2 μg/ml
# Experimental: Briefly, for measurement of the level of accumulation, both the bacterial strains were grown overnight on Trypticase Soya Agar. Bacterial suspensions were prepared at an optical density at 550 nm of 0.2 in uptake buffer (NaCl, 110 mM; KCl, 7 mM; NH4Cl, 50 mM; Na2HPO4, 0.4 mM; Tris base, 52 mM; glucose, 0.2% adjusted to pH 7.5 with HCl) and were then exposed to ethidium bromide at a concentration of 2 μg/ml. The increase in fluorescence as ethidium bromide entered the cells was recorded fluorometrically with a Perkin-Elmer model LS50 spectrofluorimeter (excitation λ, 530 nm; emission λ, 600 nm) at 30° C.
# For determining ethidium bromide loss, bacterial suspensions were prepared as described above and were exposed to ethidium bromide (2 μg/ml) in the presence of compound of formula 1a (25 μg/ml) for 30 min at 37° C. The cells were then pelleted by centrifugation and were resuspended in fresh uptake buffer. The loss of ethidium bromide from the cells was measured as a decrease in fluorescence (FIG. IB)
# [22] = with compound of formula 1a 0.09 μg/ml
# [23] = with compound of formula 1a 0.78 μg/ml
# [24] = with compound of formula 1a 6.25 μg/ml
# [25] = with compound of formula 1a 50.0 μg/ml
# [26] = Amikacin alone, read-out: MIC of Amikacin
# [27] = Ciprofloxacin alone, read-out: MIC Ciprofloxacin
# [28] = 2% Mupirocin, five days, two applications a day
# [29] = Mupirocin alone, read-out: MIC of Mupirocin
# [30] = Mycobacterium tuberculosis, Rifampicin alone
# [31] = 0.25% Mupirocin + 0.25% compound of formula 1
# [32] = 0.5% Mupirocin + 0.25% compound of formula 1
smiles,measurement,setting,value
"CCC(/C=C/C(=O)N1CCCC1)=C\c1ccc2c(c1)OCO2 [5-(3,4-methylenedioxyphenyl)-4-ethyl-2E,4E-pentadienoic acid pyrrolidide]",MIC of Rifampicin,[1]; [22],0.03 µg/mL
same,MIC of Rifampicin,[1]; [23],0.03 µg/mL
same,MIC of Rifampicin,[1]; [24],0.03 µg/mL
same,MIC of Rifampicin,[1]; [25],0.03 µg/mL
same,MIC of Rifampicin,[2]; [22],0.03 µg/mL
same,MIC of Rifampicin,[2]; [23],0.03 µg/mL
same,MIC of Rifampicin,[2]; [24],0.03 µg/mL
same,MIC of Rifampicin,[2]; [25],0.03 µg/mL
same,MIC of Rifampicin,"[3]; with compound of formula 1a 0.09 μg/ml, M. tuberculosis H37Rv",0.03 µg/mL
same,MIC of Rifampicin,"[3]; with compound of formula 1a 0.78 μg/ml, M. tuberculosis H37Rv",0.03 µg/mL
same,MIC of Rifampicin,"[3]; with compound of formula 1a 6.25 μg/ml, M. tuberculosis H37Rv",0.03 µg/mL
same,MIC of Rifampicin,"[3]; with compound of formula 1a 50.0 μg/ml, M. tuberculosis H37Rv",0.03 µg/mL
same,MIC of Rifampicin,[4]; [22],2.0 µg/mL
same,MIC of Rifampicin,[4]; [23],1.0 µg/mL
same,MIC of Rifampicin,[4]; [24],1.0 µg/mL
same,MIC of Rifampicin,[4]; [25],1.0 µg/mL
same,MIC of Rifampicin,[5]; [22],2.0 µg/mL
same,MIC of Rifampicin,[5]; [23],2.0 µg/mL
same,MIC of Rifampicin,[5]; [24],1.0 µg/mL
same,MIC of Rifampicin,[5]; [25],1.0 µg/mL
"NCC[C@H](O)C(=O)N[C@@H]1C[C@H](N)[C@@H](O[C@H]2O[C@H](CN)[C@@H](O)[C@H](O)[C@H]2O)[C@H](O)[C@H]1O[C@H]1O[C@H](CO)[C@@H](O)[C@H](N)[C@H]1O [Amikacin, reference compound]",MIC,[6]; [26],8 µg/mL
same,MIC,[7]; [26],1 µg/mL
same,MIC,"[8]; Amikacin alone, read-out: MIC Amikacin",4 µg/mL
same,MIC,"[9]; ATCC29213, Amikacin alone, read-out: MIC of Amikacin",2 µg/mL
same,MIC,"[9]; ATCC29213, Tables 5A/5B, Amikacin alone, read-out: MIC Amikacin",2 µg/mL
same,MIC,[10]; [26],1 µg/mL
same,MIC,[11]; [26],16 µg/mL
"O=C(O)c1cn(C2CC2)c2cc(N3CCNCC3)c(F)cc2c1=O [Ciprofloxacin, reference compound]",MIC,[6]; [27],32 µg/mL
same,MIC,[7]; [27],0.12 µg/mL
same,MIC,[8]; [27],32 µg/mL
same,MIC,"[9]; ATCC29213, Ciprofloxacin alone, read-out: MIC Ciprofloxacin",0.25 µg/mL
same,MIC,"[9]; ATCC29213, Tables 5A/5B, Ciprofloxacin alone, read-out: MIC Ciprofloxacin",0.25 µg/mL
same,MIC,[12],0.5 to 1 µg/mL
same,MIC,[10]; [27],0.12 µg/mL
same,MIC,[11]; [27],32 µg/mL
same,ED50,[13],9.2 mg/kg
same,MIC,[14],0.03 to 0.5 µg/mL
"C/C(=C\C(=O)OCCCCCCCCC(=O)O)C[C@@H]1OC[C@H](C[C@@H]2O[C@H]2[C@@H](C)[C@H](C)O)[C@@H](O)[C@H]1O [Mupirocin, reference compound]",Growth,[15]; [28],3/5
same,Mean CFU,[15]; [28],1.08 × 10^4 CFU
same,MIC,[6]; [29],0.12 µg/mL
same,MIC,"[8]; Mupirocin alone, read-out: MIC Mupirocin",0.12 µg/mL
same,MIC,"[9]; ATCC29213, Mupirocin alone, read-out: MIC of Mupirocin",0.12 µg/mL
same,MIC,"[9]; ATCC29213, Tables 5A/5B, Mupirocin alone, read-out: MIC Mupirocin",0.12 µg/mL
same,MIC,[16],0.25 µg/mL
same,MIC,[11]; [29],0.25 µg/mL
"CO[C@H]1/C=C/O[C@@]2(C)Oc3c(C)c(O)c4c(O)c(c(/C=N/N5CCN(C)CC5)c(O)c4c3C2=O)NC(=O)/C(C)=C\C=C\[C@H](C)[C@H](O)[C@@H](C)[C@@H](O)[C@@H](C)[C@H](OC(C)=O)[C@@H]1C [Rifampicin, reference compound]",MIC,[1]; [30],0.06 µg/mL
same,MIC,[2]; [30],0.06 µg/mL
same,MIC,"[3]; M. tuberculosis H37Rv, read-out: MIC of Rifampicin",0.12 µg/mL
same,MIC,"[3]; Tables 5A/5B, M tuberculosis H37Rv, read-out: MIC Rifampicin",0.12 µg/mL
same,MIC,[4]; Rifampicin alone,2 µg/mL
same,MIC,"[5]; Mycobacterium avium, ATCC49601, Rifampicin alone",2 µg/mL
"CCC(/C=C/C(=O)N1CCCCC1)=C\c1ccc2c(c1)OCO2 [compound of formula 1a, 4-ethyl-5-(3,4-methylenedioxyphenyl)-2E,4E-pentadienoic acid piperidine amide]",Growth,[15]; [31],4/5
same,Mean CFU,[15]; [31],2.5 × 10^4 CFU
same,Growth,[15]; [32],1/5
same,Mean CFU,[15]; [32],4.0 × 10^3 CFU
same,Growth,[15]; 0.5% Mupirocin + 0.5% compound of formula 1,0/5
same,wound healing,"[15]; combination of mupirocin with compound of formula-1a vs mupirocin cream, MRSA-infected skin wound of mice, five days",better wound healing
same,potency relative to piperine in reducing the MICs of the antibacterial agents,[17],four times more potent than piperine
same,efficacy of combinations with anti-infective agents in vivo,[18],efficacious
same,reductions in MIC of ciprofloxacin in combination with the potentiator,[19],Two to more than eight fold
same,LD50 (oral),[20],> 3.0 gm/kg
same,accumulation of ethidium bromide,[21]; S. aureus wild type (FIG. IA),Increased Accumulation
same,efflux of ethidium bromide,[21]; S. aureus wild type (FIG. IB),Decreased Efflux
